The source of these data is patent US11446280B2, “Compounds and methods for the treatment of microbial infections” (Versitech Limited, priority 2017, dated 2022).

Values after ≈ are worked out from the molar mass of the structure shown.

Chain of 4,4-diapophytoene desaturase (CrtN) (Q7A3E2 whole entry): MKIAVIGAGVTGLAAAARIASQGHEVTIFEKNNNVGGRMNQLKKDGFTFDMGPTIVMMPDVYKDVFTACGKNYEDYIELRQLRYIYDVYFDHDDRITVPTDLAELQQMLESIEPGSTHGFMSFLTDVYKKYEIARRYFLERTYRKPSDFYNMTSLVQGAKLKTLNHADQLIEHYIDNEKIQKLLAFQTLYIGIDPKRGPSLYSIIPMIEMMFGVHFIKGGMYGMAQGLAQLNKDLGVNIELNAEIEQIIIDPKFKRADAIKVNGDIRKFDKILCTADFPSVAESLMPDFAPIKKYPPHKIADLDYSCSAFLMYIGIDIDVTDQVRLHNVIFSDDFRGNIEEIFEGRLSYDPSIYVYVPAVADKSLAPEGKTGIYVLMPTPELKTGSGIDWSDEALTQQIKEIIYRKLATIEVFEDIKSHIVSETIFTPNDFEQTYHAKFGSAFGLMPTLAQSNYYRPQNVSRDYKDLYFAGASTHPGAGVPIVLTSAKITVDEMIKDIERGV

One data set concerns S. aureus pigment formation (staphyloxanthin production). The data set can be described thus: In vitro pigment inhibition / staphyloxanthin production in S. aureus. The following applies: S. aureus USA300, staphyloxanthin methanol extract OD 450 nm, compounds 300 nM to 700 nM, NP16 = 1. The data set is classed as cell-based, Staphylococcus aureus. As to the method:
S. aureus was propagated in Brain Heart Infusion broth (BHI) or on BHI agar (Oxoid). The in vitro pigment inhibition studies were performed by S. aureus USA300 cultured in BHI with or without the presence of inhibitor compounds at 37° C. and 250 rpm for 36-48 hours. The bacteria were washed twice with PBS prior to the staphyloxanthin purification with methanol. The OD of the extracts were monitor at 450 nm using DTX880 multi-plate reader spectrophotometer (Beckman). The concentration range tested for the compounds were between 300 nM to 700 nM, and control groups were added with equal volume of DMSO.
(§1) The IC50 values were obtained by fitting the inhibition data to a normal dose-response curve in SigmaPlot (CA).
(§2) The cytotoxicity of NP-16 and some of it analogues was tested against Raw 264.7 cells, and the cell tolerance of each compounds were documented in Table 3. Along with the in vitro staphyloxanthin production of the NP-16 analogues were being tested, the compounds can exert staphyloxanthin production inhibition. The staphyloxanthin from the overnight-cultured bacteria were extracted with methanol and quantified in via spectrophotometry. The results were presented in relative ratio to NP-16 in both the inhibition ratio as well as the TC50 in Table 3 (compound/analogue numbers correspond to those listed in Table 1).
For the compound `O=C(/C=C/c1cccc(Br)c1)Nc1ccc(S(=O)(=O)N2CCCC2)cc1` [Compound 11, 3-(5-bromophenyl)-N-[4-(1-pyrrolidinylsulfonyl)phenyl]acryl-amide], the “Relative ratio to NP16 based on inhibition ratio” value was determined as 1.03.

Turning to `O=C(/C=C/c1ccccc1Br)Nc1ccc(S(=O)(=O)N2CCCC2)cc1` [Compound 12, 3-(6-bromophenyl)-N-[4-(1-pyrrolidinylsulfonyl)phenyl]acryl-amide], the “Relative ratio to NP16 based on inhibition ratio” value is recorded as 2.35.

On to `O=C(/C=C/c1ccc(Br)cc1)Nc1ccc(S(=O)(=O)N2CCCC2)cc1` [Compound 13, 3-(4-bromophenyl)-N-[4-(1-pyrrolidinylsulfonyl)phenyl]acryl-amide], for which the “Relative ratio to NP16 based on inhibition ratio” value is on record as 0.25.

Take `Cc1ccc(/C=C/C(=O)Nc2ccc(S(=O)(=O)N3CCCC3)cc2)cc1` [Compound 14, 3-(4-methylphenyl)-N-[4-(1-pyrrolidinylsulfonyl)phenyl]acryl-amide]: the “Relative ratio to NP16 based on inhibition ratio” value is 0.83.

In the case of `Cc1ccccc1/C=C/C(=O)Nc1ccc(S(=O)(=O)N2CCCC2)cc1` [Compound 15, 3-(6-methylphenyl)-N-[4-(1-pyrrolidinylsulfonyl)phenyl]acryl-amide], the “Relative ratio to NP16 based on inhibition ratio” value turned out to be 1.73.

Turning to `O=C(/C=C/c1ccc(O)cc1)Nc1ccc(S(=O)(=O)N2CCCC2)cc1` [Compound 16, 3-(4-hydroxylphenyl)-N-[4-(1-pyrrolidinylsulfonyl)phenyl]acryl-amide], the “Relative ratio to NP16 based on inhibition ratio” value was 0.33.

For `CC(=O)Oc1cccc(/C=C/C(=O)Nc2ccc(S(=O)(=O)N3CCCC3)cc2)c1` [Compound 17, 3-(5-acetoxylphenyl)-N-[4-(1-pyrrolidinylsulfonyl)phenyl]acryl-amide], the “Relative ratio to NP16 based on inhibition ratio” value is 0.58.

As for `CC(=O)Oc1ccccc1/C=C/C(=O)Nc1ccc(S(=O)(=O)N2CCCC2)cc1` [Compound 18, 3-(6-acetoxylphenyl)-N-[4-(1-pyrrolidinylsulfonyl)phenyl]acryl-amide], the “Relative ratio to NP16 based on inhibition ratio” value came to 0.35.

Regarding `CC(=O)Oc1ccc(/C=C/C(=O)Nc2ccc(S(=O)(=O)N3CCCC3)cc2)cc1` [Compound 19, 3-(4-acetoxylphenyl)-N-[4-(1-pyrrolidinylsulfonyl)phenyl]acryl-amide], the “Relative ratio to NP16 based on inhibition ratio” value was found to be 0.86.

`O=C(/C=C/c1cccc(-c2ccccc2)c1)Nc1ccc(S(=O)(=O)N2CCCC2)cc1` [Compound 20, 3-(5-phenylphenyl)-N-[4-(1-pyrrolidinylsulfonyl)phenyl]acryl-amide]: the “Relative ratio to NP16 based on inhibition ratio” value is recorded as 0.61.

The test system of a further data set is MDCK cells. The data set can be described thus: Cytotoxicity in MDCK cells (MTT assay). The data set is classed as cell-based. The following applies: up to 500 μM. As for the experimental part: (§3) The cytotoxicity of NP16 in MDCK cells was evaluated by MTT (3-[4,5-dimethylthiazol-2-yl]-2,5-diphenyltetrazolium bromide) assay according to manufacturer's instructions. A toxic control (1%) SDS was included to ensure the MTT assay was effective. The highest concentration of NP16 that could be used was 500 μM due to solubility limitations. SigmaPlot 11.0 (SPSS, IL) was used for graph plotting. Experiments were repeated twice in triplicate.
as §1
For orientation: Tetrazolium assays rely on reduction of a dye to a coloured formazan, in cell work by metabolically active cells.
Take `O=C(/C=C/c1ccccc1)Nc1ccc(S(=O)(=O)N2CCCC2)cc1` [Compound 1, 3-phenyl-N-[4-(1-pyrrolidinylsulfonyl)phenyl]acryl-amide]: the “Effect on the growth of MDCK cells” value is recorded as “no effect”.

The subject of a further data set is Raw 264.7 cells. In words: Cytotoxicity in Raw 264.7 cells (MTT assay). The data set is classed as cell-based. Also on record: unit not given here. The following applies: highest concentration 500 μM. As for the experimental part: (§4) The cytotoxicity of NP-16 and some of it analogues in Raw 264.7 cells was also evaluated by MTT (3-[4,5-dimethylthiazol-2-yl]-2,5-diphenyltetrazolium bromide) assay according to manufacturer's instructions. A toxic control (1%) SDS was included to ensure the MTT assay was working properly. The highest concentration of NP-16 analogues used was 500 μM due to solubility limitations. SigmaPlot 11.0 (SPSS, IL) was used for graph plotting. Experiments were carried out in triplicate and repeated twice.
as §2
Turning to `O=C(/C=C/c1ccccc1)Nc1ccc(S(=O)(=O)N2CCCC2)cc1` [Compound 1, 3-phenyl-N-[4-(1-pyrrolidinylsulfonyl)phenyl]acryl-amide], the “TC50 to Raw 264.7 cells” value was >200.

Consider `O=C(/C=C/c1cccc(Br)c1)Nc1ccc(S(=O)(=O)N2CCCC2)cc1` [Compound 11, 3-(5-bromophenyl)-N-[4-(1-pyrrolidinylsulfonyl)phenyl]acryl-amide], for which the “TC50 to Raw 264.7 cells” value is >200.

On to `O=C(/C=C/c1ccccc1Br)Nc1ccc(S(=O)(=O)N2CCCC2)cc1` [Compound 12, 3-(6-bromophenyl)-N-[4-(1-pyrrolidinylsulfonyl)phenyl]acryl-amide], for which the “TC50 to Raw 264.7 cells” value is listed as >200.

For `O=C(/C=C/c1ccc(Br)cc1)Nc1ccc(S(=O)(=O)N2CCCC2)cc1` [Compound 13, 3-(4-bromophenyl)-N-[4-(1-pyrrolidinylsulfonyl)phenyl]acryl-amide], the “TC50 to Raw 264.7 cells” value is on record as >200.

Take `Cc1ccc(/C=C/C(=O)Nc2ccc(S(=O)(=O)N3CCCC3)cc2)cc1` [Compound 14, 3-(4-methylphenyl)-N-[4-(1-pyrrolidinylsulfonyl)phenyl]acryl-amide]: the “TC50 to Raw 264.7 cells” value is >200.

On to `Cc1ccccc1/C=C/C(=O)Nc1ccc(S(=O)(=O)N2CCCC2)cc1` [Compound 15, 3-(6-methylphenyl)-N-[4-(1-pyrrolidinylsulfonyl)phenyl]acryl-amide], for which the “TC50 to Raw 264.7 cells” value was >200.

As for `O=C(/C=C/c1ccc(O)cc1)Nc1ccc(S(=O)(=O)N2CCCC2)cc1` [Compound 16, 3-(4-hydroxylphenyl)-N-[4-(1-pyrrolidinylsulfonyl)phenyl]acryl-amide], the “TC50 to Raw 264.7 cells” value is reported as 75.

As to `CC(=O)Oc1cccc(/C=C/C(=O)Nc2ccc(S(=O)(=O)N3CCCC3)cc2)c1` [Compound 17, 3-(5-acetoxylphenyl)-N-[4-(1-pyrrolidinylsulfonyl)phenyl]acryl-amide], the “TC50 to Raw 264.7 cells” value is listed as ~75.

In the case of `CC(=O)Oc1ccccc1/C=C/C(=O)Nc1ccc(S(=O)(=O)N2CCCC2)cc1` [Compound 18, 3-(6-acetoxylphenyl)-N-[4-(1-pyrrolidinylsulfonyl)phenyl]acryl-amide], the “TC50 to Raw 264.7 cells” value was ~150.

In the case of `CC(=O)Oc1ccc(/C=C/C(=O)Nc2ccc(S(=O)(=O)N3CCCC3)cc2)cc1` [Compound 19, 3-(4-acetoxylphenyl)-N-[4-(1-pyrrolidinylsulfonyl)phenyl]acryl-amide], the “TC50 to Raw 264.7 cells” value was ~150.

With `O=C(/C=C/c1cccc(-c2ccccc2)c1)Nc1ccc(S(=O)(=O)N2CCCC2)cc1` [Compound 20, 3-(5-phenylphenyl)-N-[4-(1-pyrrolidinylsulfonyl)phenyl]acryl-amide], the “TC50 to Raw 264.7 cells” value is recorded as >200.

Tested on in a further data set: not listed separately
The data set can be described thus: Solubility limit in cytotoxicity testing. The data set is classed as physicochemical. To be noted: cytotoxicity (MTT) assay medium; read-out: Highest concentration that could be used due to solubility limitations. As to the method: as §3, §4
With `O=C(/C=C/c1ccccc1)Nc1ccc(S(=O)(=O)N2CCCC2)cc1` [Compound 1, 3-phenyl-N-[4-(1-pyrrolidinylsulfonyl)phenyl]acryl-amide], the solubility was 500 µM (≈ 178 µg/mL).

Another data set addresses 4,4-diapophytoene desaturase (CrtN) (Staphylococcus aureus, UniProt Q7A3E2).
Experiment: not given
To be noted: reference [5]; cited from earlier work.
On to `c1ccc(Nc2ccccc2)cc1` [Diphenylamine], for which the “Inhibition of CrtN” value is on record as “high micromolar level”.

The test system of a further data set is polymorphonuclear leukocytes.
Experiment: not given
To be noted: at high concentrations, reference [14]; cited from earlier work.
Take `CN(C/C=C/c1ccccc1)Cc1cccc2ccccc12` [naftifine]: the “Chemotaxis, chemokinesis, chemiluminescence and superoxide anion production of polymorphonuclear leukocytes” value is recorded as “suppress”.
